Measurements reported in patent US4309559A, “Sulphonamides useful as pesticides” (FBC Limited, priority 1977, dated 1982).

Legend:
Type in all cases: in vivo
Peas (Pisum sativum) [1] = test: Post-emergence foliar spray, herbicidal/growth regulant response, peas; details: Lathyrus oleraceus, 168 h, foliar spray 11.2 kg/ha, 7 days, 0=no effect, 100=complete kill, read-out: herbicidal or growth regulant response index
Protocol: (§1) Seeds of the plant species listed below were sown in anodised aluminium pans, 19 cm long×9.5 cm wide×5 cm deep, containing John Innes I potting compost. They were then watered and placed in a controlled environment room (22° C.; 65-85% relative humidity; 14 hours per day artificial illumination at 13,000 lux). Fourteen days after sowing, the seedlings received a foliar spray of a compound listed below, formulated as a solution in 1:1 by volume aqueous acetone. The concentration of active ingredient and volume of application were adjusted so as to be equivalent to a rate of 11.2 kg/ha in 450 liters per hectare. After seven days growth in the controlled environment room, the plants were visually assessed for any herbicidal or growth regulant response. All differences from the untreated control were scored according to an index where 0=no effect and 100=complete kill.
(§2) The product of Example 95 was tested according to the procedure of Examples 49-55.

Mustard (Sinapis alba) [2] = test: Post-emergence foliar spray, herbicidal/growth regulant response, mustard; details: 168 h, foliar spray 11.2 kg/ha, 7 days, 0=no effect, 100=complete kill, read-out: herbicidal or growth regulant response index
Protocol: as §1, §2

[3] = system: Linseed (Linum usitatissimum); test: Post-emergence foliar spray, herbicidal/growth regulant response, linseed; details: 168 h, foliar spray 11.2 kg/ha, 7 days, 0=no effect, 100=complete kill, read-out: herbicidal or growth regulant response index
Protocol: as §1, §2

[4] = system: Ryegrass (Lolium perenne); test: Post-emergence foliar spray, herbicidal/growth regulant response, ryegrass; details: 168 h, foliar spray 11.2 kg/ha, 7 days, 0=no effect, 100=complete kill, read-out: herbicidal or growth regulant response index
Protocol: as §1, §2

[5] = system: Sugarbeet (Beta vulgaris); test: Post-emergence foliar spray, herbicidal/growth regulant response, sugarbeet; details: 168 h, foliar spray 11.2 kg/ha, 7 days, 0=no effect, 100=complete kill, read-out: herbicidal or growth regulant response index
Protocol: as §1, §2

Oat (Avena sativa) = test: Post-emergence foliar spray, herbicidal/growth regulant response, oat; details: 168 h, foliar spray 11.2 kg/ha, 7 days, 0=no effect, 100=complete kill, read-out: herbicidal or growth regulant response index
Protocol: as §1, §2

[6] = system: French beans (Phaseolus vulgaris); test: Post-emergence foliar spray, herbicidal/growth regulant response, French beans; details: foliar spray 11.2 kg/ha, 7 days, 0=no effect, 100=complete kill
Protocol: as §1, §2

Peas (Pisum sativum) [7] = test: Soil incorporation (attaclay/sand dust), growth regulatory or herbicidal effects, peas; details: Lathyrus oleraceus, 504 h, soil incorporation 26 ppm, 21 days, 0=no effect, 100=complete kill, read-out: growth regulatory or herbicidal effect score
Source text: (§3) The compounds listed below were each formulated as an attaclay/sand dust and incorporated into John Innes I potting compost at a rate equivalent to 26 parts per million weight/volume of active ingredient to soil and placed in anodised aluminium pans, 19 cm long×9.5 cm wide×5.0 cm deep. This rate is approximately equivalent to a soil surface application of 11.2 kg active ingredient/hectare cultivated to a depth of 5 cm. Seeds of the species listed below were sown in the treated soil, watered and placed in a controlled environment room (22° C.; 65-85% relative humidity; 14 hours per day artificial illumination at 13,000 lux) for 21 days. The plants were then visually assessed for any growth regulatory or herbicidal effects. All differences from an untreated control were scored on a scale from 0-100, where 0 signifies no effect and 100 signifies complete kill.
(§4) The compounds listed below were tested according to the procedure of Examples 56-60 but at 130 parts per million weight/volume of active ingredient to soil. This rate is approximately equivalent to a soil surface application of 56 kg active ingredient per hectare cultivated to a depth of 5 cm.
(§5) The product of Example 95 was tested according to the procedure of Examples 56-60 but at 130 and 26 parts per million weight/volume. The results were as follows:
(§6) N-(2-oxopropyl)-2'-chloro-6'-methyl-methanesulphonanilide, formulated as an attaclay/sand dust, was incorporated in John Innes I potting compost at a rate equivalent to 130 parts per million weight/volume of active ingredient to soil and placed in anodised aluminium pans, 19 cm long×9.5 cm wide×5.0 cm deep. These rates are approximately equivalent to a soil surface application of 56 kg active ingredient per hectare cultivated to a depth of 5 cm. Seeds of Peas, Mustard, Linseed, Maize, Oats and Ryegrass were sown in the treated soil, watered and placed in a controlled environment room (22° C.; 65-85% relative humidity; 14 hours artificial illumination at 13000 lux) for 21 days.
(§7) The plants were then visually assessed for any growth regulatory or herbicidal effects. All differences from an untreated control were scored on a scale from 0-100, where 0 signifies no effect and 100 signifies complete suppression.

Mustard (Sinapis alba) [8] = test: Soil incorporation (attaclay/sand dust), growth regulatory or herbicidal effects, mustard; details: 504 h, soil incorporation 26 ppm, 21 days, 0=no effect, 100=complete kill, read-out: growth regulatory or herbicidal effect score
Source text: as §3, §4, §5, §6, §7

[9] = system: Linseed (Linum usitatissimum); test: Soil incorporation (attaclay/sand dust), growth regulatory or herbicidal effects, linseed; details: 504 h, soil incorporation 26 ppm, 21 days, 0=no effect, 100=complete kill, read-out: growth regulatory or herbicidal effect score
Source text: as §3, §4, §5, §6, §7

Maize (Zea mays) = test: Soil incorporation (attaclay/sand dust), growth regulatory or herbicidal effects, maize; details: 504 h, soil incorporation 26 ppm, 21 days, 0=no effect, 100=complete kill, read-out: growth regulatory or herbicidal effect score
Source text: as §3, §4, §5, §6, §7

Oats (Avena sativa) = test: Soil incorporation (attaclay/sand dust), growth regulatory or herbicidal effects, oats; details: 504 h, soil incorporation 26 ppm, 21 days, 0=no effect, 100=complete kill, read-out: growth regulatory or herbicidal effect score
Source text: as §3, §4, §5, §6, §7

[10] = system: Ryegrass (Lolium perenne); test: Soil incorporation (attaclay/sand dust), growth regulatory or herbicidal effects, ryegrass; details: 504 h, soil incorporation 26 ppm, 21 days, 0=no effect, 100=complete kill, read-out: growth regulatory or herbicidal effect score
Source text: as §3, §4, §5, §6, §7

[11] = system: Wheat (Triticum aestivum); test: Pre-emergence soil surface spray, wheat; details: soil surface spray 2.8 kg/ha, 21 days, 0=no effect, 100=complete kill
Source text: (§8) Seeds of the plant species listed below were sown in John Innes I potting compost in aluminium pans, 19 cm long×9.5 cm wide×5.0 cm high, one species per pan. The soil surface was then sprayed with a compound listed below, formulated as a solution in 1:1 by volume aqueous acetone except for the compound of Example 44 which was formulated as an aqueous suspension containing 1000 parts per million of the wetting agent Lissapol NX (nonylphenol/ethylene oxide condensate). Each compound was applied at a rate of 2.8 kg of active ingredient per hectare in 450 liters of spray liquid per hectare. The pans were then watered, and placed in a controlled environment room (22° C., relative humidity 65-85%, 14 hours per day artificial illumination at 17,000 lux) for 21 days. The plants were then visually assessed for any growth regulatory or herbicidal effects. All differences from an untreated control were scored on a scale from 0-100, where 0 signifies no effect and 100 signifies complete kill.

Barley (Hordeum vulgare) = test: Pre-emergence soil surface spray, barley; details: soil surface spray 2.8 kg/ha, 21 days, 0=no effect, 100=complete kill
Source text: as §8

Wild Oat (Avena fatua) = test: Pre-emergence soil surface spray, wild oat; details: soil surface spray 2.8 kg/ha, 21 days, 0=no effect, 100=complete kill
Source text: as §8

[12] = system: Blackgrass (Alopecurus myosuroides); test: Pre-emergence soil surface spray, blackgrass; details: soil surface spray 2.8 kg/ha, 21 days, 0=no effect, 100=complete kill
Source text: as §8

[13] = system: Barnyardgrass (Echinochloa crus-galli); test: Pre-emergence soil surface spray, barnyardgrass; details: soil surface spray 2.8 kg/ha, 21 days, 0=no effect, 100=complete kill
Source text: as §8

[14] = system: Crabgrass (Digitaria sanguinalis); test: Pre-emergence soil surface spray, crabgrass; details: soil surface spray 2.8 kg/ha, 21 days, 0=no effect, 100=complete kill
Source text: as §8

[15] = system: vine downy mildew Plasmopara viticola; test: Vine downy mildew control on vine plants (leaf application); details: leaves, 12 days, controls less than 5%
Protocol: Aqueous acetone solutions or suspensions containing 2000 or 500 mg of the compound listed below per liter, together with 125 mg of a wetting agent per liter, were applied to:
(B) the leaves of vine plants having five fully expanded leaves;
The treated plants, together with controls treated with wetting agent alone, were inoculated 24 hours after the chemical application:
in the case of (B) with an aqueous suspension of sporangia of the disease organism vine downy mildew Plasmopara viticola;
in the case of (B) were placed in an atomosphere of 80-100% humidity at 14°-18° C. until the disease incidence was measured twelve days later;

[16] = system: barley powdery mildew Erysiphe graminis; test: Barley powdery mildew control on barley plants; details: 2000 ppm; soil and leaves; 10 days; controls less than 5%
[17] = system: cucumber powdery mildew Erysiphe cichoracearum; test: Cucumber powdery mildew control on cucumber plants; details: 2000 ppm; soil and leaves; 14 days; controls less than 5%
[18] = system: rice blast Pyricularia oryzae; details: 2000 ppm; soil and leaves; 7 days; controls less than 5%

CCCS(=O)(=O)N(c1c(C)cccc1C)C(C)C(=O)OC(C)C (stereo not drawn) [Example 3]
pest or weed control at 11200 g/ha (Peas (Pisum sativum) [1]): 5%
pest or weed control at 11200 g/ha (Mustard (Sinapis alba) [2]): 90%
pest or weed control at 11200 g/ha [3]: 30%
pest or weed control at 11200 g/ha [4]: 15%
plant injury at 11200 g/ha [5]: 90%
plant injury at 11200 g/ha (Oat (Avena sativa)): 5%
herbicidal or growth regulant response index [6]: 80
pest or weed control at 26 µg/mL (Peas (Pisum sativum) [7]): 0%
pest or weed control at 26 µg/mL (Mustard (Sinapis alba) [8]): 90%
pest or weed control at 26 µg/mL [9]: 20%
plant injury at 26 µg/mL (Maize (Zea mays)): 20%
plant injury at 26 µg/mL (Oats (Avena sativa)): 20%
pest or weed control at 26 µg/mL [10]: 90%
growth regulatory or herbicidal effect score [11]: 0
growth regulatory or herbicidal effect score (Barley (Hordeum vulgare)): 0
growth regulatory or herbicidal effect score (Wild Oat (Avena fatua)): 80
growth regulatory or herbicidal effect score [12]: 90
growth regulatory or herbicidal effect score [13]: 60
growth regulatory or herbicidal effect score [14]: 90

COC(=O)C(C)N(c1c(C)cccc1C)S(C)(=O)=O (stereo not drawn) [Example 29, N-(1-(methoxycarbonyl)ethyl)-2',6'-dimethyl-methanesulphonanilide]
% Control, vine downy mildew ([15]; 500 ppm): 90%
% Control, vine downy mildew ([15]; 2000 ppm): 98%

Cc1cccc(C)c1N(C1CCOC1=O)S(C)(=O)=O (stereo not drawn) [Example 123]
% Control, barley powdery mildew [16]: 95%
% Control, cucumber powdery mildew [17]: 92%

CS(=O)(=O)N(CC#N)c1ccc(SC#N)cc1 [Example 141]
% Control, rice blast [18]: 84%
